Measured values taken from ChEMBL document CHEMBL1255490, “In vitro activities of DC-159a, a novel fluoroquinolone, against Mycobacterium species” (Antimicrob Agents Chemother, 2010).
In brackets after ≈: the same amount, converted by molar mass.

test system: Mycobacterium tuberculosis; experiment: Antimycobacterial activity against quinolone-resistant multidrug-resistant Mycobacterium tuberculosis after 21 days by agar dilution method; format: functional; conditions: 504 h

Structure (SMILES) | MIC50 [µg/mL] | MIC90 [µg/mL] | MIC [µg/mL]
C[C@H]1COc2c(N3CCN(C)CC3)c(F)cc3c(=O)c(C(=O)O)cn1c23.C[C@H]1COc2c(N3CCN(C)CC3)c(F)cc3c(=O)c(C(=O)O)cn1c23.O [LEVOFLOXACIN] | 8 | 16 | 
CO[C@H]1/C=C/O[C@@]2(C)Oc3c(C)c(O)c4c(O)c(c(/C=N/N5CCN(C)CC5)c(O)c4c3C2=O)NC(=O)/C(C)=C\C=C\[C@H](C)[C@H](O)[C@@H](C)[C@@H](O)[C@@H](C)[C@H](OC(C)=O)[C@@H]1C [RIFAMPIN] | 128 (≈ 156 µM) | > 128 | 
COc1c(N2CCNC(C)C2)c(F)cc2c(=O)c(C(=O)O)cn(C3CC3)c12 (stereo unspecified) [GATIFLOXACIN] | 1 (≈ 2.66 µM) | 2 (≈ 5.33 µM) | 
COc1c(N2C[C@@H]3CCCN[C@@H]3C2)c(F)cc2c(=O)c(C(=O)O)cn(C3CC3)c12 [MOXIFLOXACIN] | 2 (≈ 4.98 µM) | 4 (≈ 9.96 µM) | 
COc1c(N2CC3(CC3)[C@](C)(N)C2)c(F)cc2c(=O)c(C(=O)O)cn([C@@H]3C[C@@H]3F)c12 | 0.125 (≈ 0.298 µM) | 0.5 (≈ 1.19 µM) | 0.125 (≈ 0.298 µM)
